# Test results as given in PubChem BioAssay AID1259411 (Chemical Carcinogenesis Research Information System (CCRIS), 2018).
# Active and inactive are the calls of the source. The rule behind the calls is not given here.
# System: rodent carcinogenicity bioassays, tumor incidence
# Assay: CCRIS carcinogenicity studies
# In short: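 Archive of carcinogenicity, mutagenicity, tumor promotion and tumor inhibition results drawn from journals, NCI reports and other sources, expert-reviewed; covers 1985-2011 and is no longer updated.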
smiles,measurement,setting,value
C[C@]12CC[C@@H]3c4ccc(O)cc4CC[C@H]3[C@@H]1CC[C@@H]2O,carcinogen call,"Species: GUINEA PIG, Route: SUBCUTANEOUS IMPLANT, Tumor Site: Type of Lesion: UTERUS",active; positive
same,carcinogen call,"Species: HAMSTER, Route: SUBCUTANEOUS IMPLANT, Tumor Site: Type of Lesion: KIDNEY",active; positive
same,carcinogen call,"Species: HAMSTER, Strain/Sex: SYRIAN/MALE, Route: SUBCUTANEOUS IMPLANT, Dose: 0, 20 MG IN PELLETS IMPLANTED EVERY 2.5 MO FOR 9 MO (STUDY DURATION: 9 MO), Tumor Site: Type of Lesion: KIDNEY: TUMOR",active; positive
same,carcinogen call,"Species: MOUSE, Route: ORAL, SUBCUTANEOUS IMPLANT, Tumor Site: Type of Lesion: CERVIX, THYMUS GLAND, MAMMARY GLAND, UTERUS, VAGINA, Tumor Site: Type of Lesion: CERVIX, THYMUS GLAND, MAMMARY GLAND, UTERUS, VAGINA",active; positive
same,carcinogen call,"Species: MOUSE, Route: SUBCUTANEOUS, Tumor Site: Type of Lesion: LYMPHATIC SYSTEM",active; positive
same,carcinogen call,"Species: MOUSE, Strain/Sex: BALB/CCRGL/FEMALE, Route: SUBCUTANEOUS, Dose: 5 UG DAILY FOR 5 D BEGINNING 16 HR AFTER BIRTH (STUDY DURATION: 20 MO), Tumor Site: Type of Lesion: CERVICOVAGINAL TRACT: CARCINOMA (16/37)",active; positive
same,carcinogen call,"Species: RAT, Route: SUBCUTANEOUS IMPLANT, Tumor Site: Type of Lesion: MAMMARY GLAND, PITUITARY GLAND",active; positive
CCCCC(CC)CO (stereo unspecified),carcinogen call,"Species: MOUSE, Strain/Sex: B6C3F1/FEMALE, Route: GAVAGE, Dose: 0, 50, 200, 750 MG/KG/D 5 D/WK FOR 18 MO (STUDY DURATION: 18 MO), Dose: 0, 50, 200, 750 MG/KG/D 5 D/WK FOR 18 MO (STUDY DURATION: 18 MO)",inactive; negative
same,carcinogen call,"Species: MOUSE, Strain/Sex: B6C3F1/MALE, Route: GAVAGE, Dose: 0, 50, 200, 750 MG/KG/D 5 D/WK FOR 18 MO (STUDY DURATION: 18 MO), Dose: 0, 50, 200, 750 MG/KG/D 5 D/WK FOR 18 MO (STUDY DURATION: 18 MO)",inactive; negative
same,carcinogen call,"Species: RAT, Strain/Sex: F344/FEMALE, Route: GAVAGE, Dose: 0, 50, 150, 500 MG/KG/D 5 D/WK FOR 24 MO (STUDY DURATION: 24 MO), Dose: 0, 50, 150, 500 MG/KG/D 5 D/WK FOR 24 MO (STUDY DURATION: 24 MO)",inactive; negative
same,carcinogen call,"Species: RAT, Strain/Sex: F344/MALE, Route: GAVAGE, Dose: 0, 50, 150, 500 MG/KG/D 5 D/WK FOR 24 MO (STUDY DURATION: 24 MO), Dose: 0, 50, 150, 500 MG/KG/D 5 D/WK FOR 24 MO (STUDY DURATION: 24 MO)",inactive; negative
Nc1ccc([N+](=O)[O-])cc1O,carcinogen call,"Species: MOUSE, Strain/Sex: B6C3F1/FEMALE, Route: GAVAGE, Dose: 0, 400, 800 MG/KG IN CORN OIL 5D/WK FOR 103 WK (STUDY DURATION: 105 WK), Dose: 0, 400, 800 MG/KG IN CORN OIL 5D/WK FOR 103 WK (STUDY DURATION: 105 WK)",inactive; negative
same,carcinogen call,"Species: MOUSE, Strain/Sex: B6C3F1/MALE, Route: GAVAGE, Dose: 0, 400, 800 MG/KG IN CORN OIL 5D/WK FOR 103 WK (STUDY DURATION: 105 WK), Dose: 0, 400, 800 MG/KG IN CORN OIL 5D/WK FOR 103 WK (STUDY DURATION: 105 WK)",inactive; negative
same,carcinogen call,"Species: RAT, Strain/Sex: F344/FEMALE, Route: GAVAGE, Dose: 0, 100, 200 MG/KG IN CORN OIL 5D/WK FOR 103 WK (STUDY DURATION: 105 WK), Dose: 0, 100, 200 MG/KG IN CORN OIL 5D/WK FOR 103 WK (STUDY DURATION: 105 WK)",inactive; negative
same,carcinogen call,"Species: RAT, Strain/Sex: F344/MALE, Route: GAVAGE, Dose: 0, 100, 200 MG/KG IN CORN OIL 5D/WK FOR 103 WK (STUDY DURATION: 105 WK), Dose: 0, 100, 200 MG/KG IN CORN OIL 5D/WK FOR 103 WK (STUDY DURATION: 105 WK), Tumor Site: Type of Lesion: PANCREAS: ACINAR CELL ADENOMA, PANCREAS: ACINAR CELL ADENOMA OR CARCINOMA",active; positive
Nc1cc(Cl)nc(C(=O)O)c1Cl,carcinogen call,"Species: Mouse, Strain/Sex: CD-1/Female, Route: Oral, Dose: 0, 5, 250, 1000 mg/kg/d in feed for 18 mo, Dose: 0, 5, 250, 1000 mg/kg/d in feed for 18 mo",inactive; negative; purity was 94.5%
same,carcinogen call,"Species: Mouse, Strain/Sex: CD-1/Male, Route: Oral, Dose: 0, 5, 250, 1000 mg/kg/d in feed for 18 mo, Dose: 0, 5, 250, 1000 mg/kg/d in feed for 18 mo",inactive; negative; purity was 94.5%
same,carcinogen call,"Species: Rat, Strain/Sex: F344/Female, Route: Oral, Dose: 0, 5, 50, 500, 1000 mg/kg/d in feed for 24 mo, Dose: 0, 5, 50, 500, 1000 mg/kg/d in feed for 24 mo",inactive; negative; purity was 94.5%
same,carcinogen call,"Species: Rat, Strain/Sex: F344/Male, Route: Oral, Dose: 0, 5, 50, 500, 1000 mg/kg/d in feed for 24 mo, Dose: 0, 5, 50, 500, 1000 mg/kg/d in feed for 24 mo",inactive; negative; purity was 94.5%
O/N=c1\ccn(O)c2ccccc12,carcinogen call,"Species: MOUSE, Strain/Sex: DDD/FEMALE, Route: SUBCUTANEOUS, Dose: 53 NMOL IN 0.1 ML OLIVE OIL WITHIN 24 HR AFTER BIRTH (STUDY DURATION: 400 D), Tumor Site: Type of Lesion: LUNG: ADENOMA, INJECTION SITE: SARCOMA, HEMATOPOIETIC SYSTEM: LEUKEMIA OR LYMPHOSARCOMA, Tumor Site: Type of Lesion: LUNG: ADENOMA, INJECTION SITE: SARCOMA, HEMATOPOIETIC SYSTEM: LEUKEMIA OR LYMPHOSARCOMA",active; positive
same,carcinogen call,"Species: RAT, Strain/Sex: BUFFALO/FEMALE, Route: GAVAGE, Dose: 1 MG/0.1 ML OR 2 MG/0.2 ML IN 60% ETHANOL SOLUTION 1/3 WK (TOTAL DOSE: 30 MG) (STUDY DURATION: 610 D), Tumor Site: Type of Lesion: GLANDULAR STOMACH: MUCOSAL CARCINOMA, MAMMARY GLAND: TUMOR, THYMUS GLAND: THYMOMA, Tumor Site: Type of Lesion: GLANDULAR STOMACH: MUCOSAL CARCINOMA, MAMMARY GLAND: TUMOR, THYMUS GLAND: THYMOMA",active; positive
Nc1cccc(N)c1,carcinogen call,"Species: MOUSE, Strain/Sex: B6C3F1/FEMALE, Route: ORAL, Dose: 0, 0.02, 0.04% IN DRINKING WATER FOR 78 WK, TOTAL INTAKE 13.0, 22.9 G/KG (STUDY DURATION: 85 WK), Dose: 0, 0.02, 0.04% IN DRINKING WATER FOR 78 WK, TOTAL INTAKE 13.0, 22.9 G/KG (STUDY DURATION: 85 WK)",inactive; negative
same,carcinogen call,"Species: MOUSE, Strain/Sex: B6C3F1/MALE, Route: ORAL, Dose: 0, 0.02, 0.04% IN THE DRINKING WATER FOR 78 WK, TOTAL INTAKE 10.9, 21.0 G/KG BODY WEIGHT (STUDY DURATION: 85 WK), Dose: 0, 0.02, 0.04% IN THE DRINKING WATER FOR 78 WK, TOTAL INTAKE 10.9, 21.0 G/KG BODY WEIGHT (STUDY DURATION: 85 WK)",inactive; negative
c1ccc(Nc2ccc(Nc3ccccc3)cc2)cc1,carcinogen call,"Species: RAT, Strain/Sex: F344/FEMALE, Route: ORAL, Dose: 0, 0.5, 2% IN DIET FOR 104 WK (STUDY DURATION: 112 WK), Dose: 0, 0.5, 2% IN DIET FOR 104 WK (STUDY DURATION: 112 WK)",inactive; negative
same,carcinogen call,"Species: RAT, Strain/Sex: F344/MALE, Route: ORAL, Dose: 0, 0.5, 2% IN DIET FOR 104 WK (STUDY DURATION: 112 WK), Dose: 0, 0.5, 2% IN DIET FOR 104 WK (STUDY DURATION: 112 WK)",inactive; negative
CCn1c2ccccc2c2ccccc21,carcinogen call,"Species: MOUSE, Strain/Sex: CD-1/FEMALE, Route: INTRAPERITONEAL, Dose: 0, 1.75 UMOL/MOUSE (TOTAL DOSE) ADMINISTERED DURING DAYS 1, 8, AND 15 OF LIFE (STUDY DURATION: 52 WK)",inactive; negative
same,carcinogen call,"Species: MOUSE, Strain/Sex: CD-1/MALE, Route: INTRAPERITONEAL, Dose: 0, 1.75 UMOL/MOUSE (TOTAL DOSE) ADMINISTERED DURING DAYS 1, 8, AND 15 OF LIFE (STUDY DURATION: 52 WK)",inactive; negative
CCCCN(COC(C)=O)N=O,carcinogen call,"Species: RAT, Strain/Sex: F344/FEMALE, Route: SUBCUTANEOUS, Dose: 6.6 MG/KG 1/WK FOR 10 WK, Tumor Site: Type of Lesion: INJECTION SITE: MALIGNANT FIBROUS HISTIOCYTOMA",active; positive
same,carcinogen call,"Species: RAT, Strain/Sex: F344/MALE, Route: SUBCUTANEOUS, Dose: 6.6 MG/KG 1/WK FOR 10 WK, Tumor Site: Type of Lesion: INJECTION SITE: MALIGNANT FIBROUS HISTIOCYTOMA, LUNG: ADENOMA OR ADENOCARCINOMA OR SQUAMOUS CELL CARCINOMA",active; positive
O=C1OC2(c3ccccc31)c1cc(Br)c(O)c(Br)c1Oc1c2cc(Br)c(O)c1Br,carcinogen call,"Species: MOUSE, Strain/Sex: ICR/FEMALE, Route: DERMAL, Dose: 0, 1 MG IN 0.1 ML DISTILLED WATER 2/WK FOR A MEAN TOTAL DOSE OF 140.1 MG (STUDY DURATION: 18 MO)",inactive; negative
same,carcinogen call,"Species: MOUSE, Strain/Sex: ICR/MALE, Route: DERMAL, Dose: 0, 1 MG IN 0.1 ML DISTILLED WATER 2/WK FOR A MEAN TOTAL DOSE OF 140.1 MG (STUDY DURATION: 18 MO)",inactive; negative
